The values below are quoted from earlier work in patent publication US20080026076A1 (priority 2003, published 2008).

The subject of this data set is PKC. The following applies: cytosol and membrane fraction of cells from thyroid, brain, liver, fibroblasts; μM concentrations of quercetin; cited from earlier work.

Turning to `O=c1c(O)c(-c2ccc(O)c(O)c2)oc2cc(O)cc(O)c12` [quercetin, 3,5,7,3′,4′-pentahydroxyflavone], the PKC activity entry is “inhibition of PKC activity”.
